Data from PubChem BioAssay AID743170 (Sanford-Burnham Center for Chemical Genomics, 2013).
Where “and” joins values, the source holds several entries; their conditions need not be identical. Identical values can stand only once. Calls of active or inactive are those of the source.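 Rule for the calls: active = compounds that lower Nile red lipid droplet staining in rat heart muscle cells with dose, giving a fitted IC50; inactive = the rest.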

Tested on: H9c2 cells, Nile red TAG accumulation, high-content imaging
Test: Nile red lipid droplet reduction, imaging readout – H9c2 cells, high-content screening, dose response (AID 743170)

IC50 | SMILES
2490 nM | COCCN1Cc2cccc(C(=O)Nc3cccc(C(=O)Nc4ccccc4OC)c3)c2C1=O
526 nM | CSCCCN1Cc2cccc(C(=O)Nc3cccc(-c4nc5ccccc5[nH]4)c3)c2C1=O
793 nM | O=C(Nc1cccc(-c2nc3ccccc3[nH]2)c1)c1cccc2c1C(=O)N(CCOc1ccccc1)C2
2330 nM | COCCN1Cc2cccc(C(=O)Nc3cccc(C(=O)Nc4ccccc4)c3)c2C1=O
> 50000 nM (inactive) | COCCN1Cc2cccc(C(=O)NCc3cccc(N(C)C)c3)c2C1=O
> 50000 nM (inactive) | COCCN1Cc2cccc(C(=O)Nc3nc4ccccc4n3C)c2C1=O
567 nM and 569 nM and 839 nM | COCCN1Cc2cccc(C(=O)Nc3cccc(-c4nc5ccccc5[nH]4)c3)c2C1=O
760 nM | CCCCN1Cc2cccc(C(=O)Nc3cccc(-c4nc5ccccc5[nH]4)c3)c2C1=O
829 nM | COc1ccc(CCN2Cc3cccc(C(=O)Nc4cccc(-c5nc6ccccc6[nH]5)c4)c3C2=O)cc1OC
792 nM | CCOCCN1Cc2cccc(C(=O)Nc3cccc(-c4nc5ccccc5[nH]4)c3)c2C1=O
762 nM | COCCN1Cc2cccc(C(=O)Nc3cccc(-c4nc5ccc(F)cc5[nH]4)c3)c2C1=O
11200 nM | O=C(Nc1cccc(-c2nc3ccccc3[nH]2)c1)c1cccc2c1C(=O)N(CCc1ccccc1)C2
1020 nM | COCCN1Cc2cccc(C(=O)Nc3cccc(-c4nc5ccc(Cl)cc5[nH]4)c3)c2C1=O
> 50000 nM (inactive) | COCCN1Cc2cccc(C(=O)Nc3nc4ccccc4[nH]3)c2C1=O
> 50000 nM (inactive) | CCOC(=O)c1cccc(NC(=O)c2cccc3c2C(=O)N(CCOC)C3)c1
> 50000 nM (inactive) | COCCN1Cc2cccc(C(=O)Nc3cccnc3)c2C1=O
352 nM | COCCN1Cc2cccc(C(=O)Nc3cccc(-c4nc5ccc(C(F)(F)F)cc5[nH]4)c3)c2C1=O
1370 nM | COCCCN1Cc2cccc(C(=O)Nc3cccc(-c4nc5ccccc5[nH]4)c3)c2C1=O
> 50000 nM (inactive) | COCCn1cnc2cccc(C(=O)Nc3cccc(-c4nc5ccccc5[nH]4)c3)c2c1=O
432 nM | COc1ccccc1CCN1Cc2cccc(C(=O)Nc3cccc(-c4nc5ccccc5[nH]4)c3)c2C1=O
1750 nM | O=C(Nc1cccc(-c2nc3ccccc3[nH]2)c1)c1cccc2c1C(=O)N(CCN1CCOCC1)C2
393 nM | COCCN1Cc2cccc(C(=O)Nc3cccc(-c4nc5ccc(C)cc5[nH]4)c3)c2C1=O
662 nM | O=C(Nc1cccc(-c2nc3ccccc3[nH]2)c1)c1cccc2c1C(=O)N(CC1CC1)C2
